What was measured:
[1] = biological target: Recombinant human DDR2 (aa427-855 containing a GST tag) (Homo sapiens (Human), UniProt Q16832); experiment: LanthaScreen Eu Kinase Binding Assay DDR2; settings: Kinase Tracer 178 10 nM, at least two independent replicates; for IC50: read-out: DDR2 pIC50 (converted)
Procedure: (§1) DDR1 and DDR2 Biochemical Assay Method The capacity of compounds to bind to DDR1 and DDR2 was quantified using a LanthaScreen Eu Kinase Binding Assay. Recombinant human DDR1 (2.5 nM; aa440-876 containing a GST tag) and DDR2 (1.75 nM; aa427-855 containing a GST tag) were diluted in assay buffer (50 mM HEPES pH7.3, 10 mM MgCl2, 1 mM EGTA and 0.01% Tween) with various concentrations of compound in a 384-well plate and a volume of 5 uL. After a 30-minute incubation at room temperature, 2.5 uL of Eu-anti GST antibody (diluted to 1 nM in assay buffer) plus Kinase Tracer 178 (diluted in assay buffer to 5 nM for DDR1 and 10 nM for DDR2) were added to the plate. Following 60-minute incubation at room temperature, time-resolved fluorescence was measured on a BMG Labtech PHERAstar plate reader. DMSO (1%) and reference compound (1 μM) were used to generate the Max and Min assay signals, respectively. Data was analysed using a four-parameter logistic model to calculate IC50 values, with at least two independent replicates were performed for each compound.

[2] = biological target: Recombinant human DDR1 (aa440-876 containing a GST tag) (Homo sapiens (Human), UniProt Q08345); experiment: LanthaScreen Eu Kinase Binding Assay DDR1; settings: Kinase Tracer 178 5 nM, at least two independent replicates; for IC50: read-out: DDR1 pIC50 (converted)
Recombinant human DDR1 (aa440-876 containing a GST tag), sequence (Q08345 other isoform, or with tags, fused parts or gaps): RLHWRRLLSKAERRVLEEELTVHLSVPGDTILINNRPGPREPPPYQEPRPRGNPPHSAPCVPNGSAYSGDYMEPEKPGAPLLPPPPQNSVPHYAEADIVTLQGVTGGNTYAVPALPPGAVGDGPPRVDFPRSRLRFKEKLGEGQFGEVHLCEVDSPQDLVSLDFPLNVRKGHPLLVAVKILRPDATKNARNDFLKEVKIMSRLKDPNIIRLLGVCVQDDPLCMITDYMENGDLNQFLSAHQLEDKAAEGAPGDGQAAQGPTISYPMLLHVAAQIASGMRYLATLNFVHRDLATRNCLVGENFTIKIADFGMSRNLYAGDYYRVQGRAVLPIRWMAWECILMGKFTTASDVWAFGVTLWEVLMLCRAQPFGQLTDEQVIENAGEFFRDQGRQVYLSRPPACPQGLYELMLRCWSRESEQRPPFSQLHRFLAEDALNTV
Procedure: as §1

Recombinant human DDR2 (aa427-855 containing a GST tag), sequence (Q16832 427-855): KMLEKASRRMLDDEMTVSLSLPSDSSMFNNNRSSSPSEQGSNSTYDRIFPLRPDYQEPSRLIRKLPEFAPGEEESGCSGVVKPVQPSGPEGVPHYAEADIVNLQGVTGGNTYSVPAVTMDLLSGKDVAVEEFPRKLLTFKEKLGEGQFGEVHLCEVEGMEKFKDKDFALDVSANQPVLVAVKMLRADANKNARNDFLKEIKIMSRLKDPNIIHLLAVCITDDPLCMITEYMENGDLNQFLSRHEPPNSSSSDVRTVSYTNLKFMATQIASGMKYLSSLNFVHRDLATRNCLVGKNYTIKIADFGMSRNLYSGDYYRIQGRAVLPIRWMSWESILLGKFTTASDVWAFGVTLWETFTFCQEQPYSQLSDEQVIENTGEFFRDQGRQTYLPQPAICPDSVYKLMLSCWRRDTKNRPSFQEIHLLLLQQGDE

SMILES	IC50 [1]	DDR1 pIC50 [2]	DDR2 pIC50 [1]	IC50 [2]
Cc1nc(-c2cncc3c2cnn3C)ccc1-n1c(=O)n(CC(=O)N[C@H](C)C(F)(F)F)c2cccc(C)c21 [Example 112]	100 to 1000 nM			10 to 100 nM
Cn1ncc2c(-c3ccc(-n4c(=O)n(CC(=O)NCC(F)(F)F)c5cccc(C#N)c54)cc3)cncc21 [Example 74, 2-[4-cyano-3-[4-(1-methylpyrazolo[3,4-c]pyridin-4-yl)phenyl]-2-oxo-benzimidazol-1-yl]-N-(2,2,2-trifluoroethyl)acetamide]			D (pIC50≤6)	10 to 100 nM
Cc1nc(-c2cncc3c2cnn3C)cnc1-n1c(=O)n(CC(=O)N[C@@H](C)C(F)(F)F)c2cccc(C)c21 [Example 115]	10 to 100 nM			10 to 100 nM
Cc1cc(-c2cncc3c2cnn3C)ncc1-n1c(=O)n(CC(=O)N[C@H](C)C(F)(F)F)c2cccc(C)c21 [Example 107]			D (pIC50≤6)	100 to 1000 nM
Cc1cc(-c2cncc3c2c(C)nn3C)ncc1-n1c(=O)n(CC(=O)NCC(F)(F)F)c2cccc(C)c21 [Example 108]			D (pIC50≤6)	100 to 1000 nM
Cn1ncc2c(-c3ccc(-n4c(=O)n(CC(=O)N5CCCC5C(F)(F)F)c5ccccc54)cc3)cncc21 (stereo not drawn) [Example 18, 1-[4-(1-methylpyrazolo[3,4-c]pyridin-4-yl)phenyl]-3-[2-oxo-2-[2-(trifluoromethyl)pyrolidin-1-yl]ethyl]benzimidazol-2-one]	10 to 100 nM	A (pIC50>8)		
CC(NC(=O)Cn1c(=O)n(-c2ccc(-c3cncc4c3cnn4C)cc2)c2ccccc21)C1CC1 (stereo not drawn) [Example 19, N-(1-cyclopropylethyl)-2-[3-[4-(1-methylpyrazolo[3,4-c]pyridin-4-yl)phenyl]-2-oxobenzimidazol-1-yl]acetamide]			D (pIC50≤6)	10 to 100 nM
Cn1ncc2c(-c3ccc(-n4c(=O)n(CC(=O)N5CCCCC5C(F)(F)F)c5ccccc54)cc3)cncc21 (stereo not drawn) [Example 20, 1-[4-(1-methylpyrazolo[3,4-c]pyridin-4-yl)phenyl]-3-[2-oxo-2-[2-(trifluoromethyl)-1-piperidyl]ethyl]benzimidazol-2-one]	100 to 1000 nM	A (pIC50>8)		
CC(CNC(=O)Cn1c(=O)n(-c2ccc(-c3cncc4c3cnn4C)cc2)c2ccccc21)C(F)(F)F (stereo not drawn) [Example 33, 2-[3-[4-(1-methylpyrazolo[3,4-c]pyridin-4-yl)phenyl]-2-oxobenzimidazol-1-yl]-N-(3,3,3-trifluoro-2-methyl-propyl)acetamide]			D (pIC50≤6)	10 to 100 nM
Cn1ncc2c(-c3ccc(-n4c(=O)n(CC(=O)NCC(F)(F)F)c5cccc(Cl)c54)cc3)cncc21 [Example 11, 2-[4-chloro-3-[4-(1-methylpyrazolo[3,4-c]pyridin-4-yl)phenyl]-2-oxobenzimidazol-1-yl]-N-(2,2,2-trifluoroethyl)acetamide]	10 to 100 nM	A (pIC50>8)		
Cn1ncc2c(-c3ccc(-n4c(=O)n(CC(=O)NCC(F)(F)F)c5ccccc54)c(F)c3)cncc21 [Example 15, 2-[3-[2-fluoro-4-(1-methylpyrazolo[3,4-c]pyridin-4-yl)phenyl]-2-oxo-benzimidazol-1-yl]-N-(2,2,2-trifluoroethyl)acetamide]			D (pIC50≤6)	100 to 1000 nM
Cn1ncc2c(-c3ccc(-n4c(=O)n(CC(=O)NCCC(F)(F)F)c5ccccc54)cc3)cncc21 [Example 46, 2-[3-[4-(1-methylpyrazolo[3,4-c]pyridin-4-yl)phenyl]-2-oxo-benzimidazol-1-yl]-N-(3,3,3-trifluoropropyl)acetamide]			D (pIC50≤6)	10 to 100 nM
Cn1ncc2c(-c3ccc(-n4c(=O)n(CC(=O)N5CCCC[C@H]5C(F)(F)F)c5ccccc54)cc3)cncc21 [Example 32, 1-[4-(1-methylpyrazolo[3,4-c]pyridin-4-yl)phenyl]-3-[2-oxo-2-[(2S)-2-(trifluoromethyl)-1-piperidyl]ethyl]benzimidazol-2-one]	100 to 1000 nM	A (pIC50>8)		
CN(C)c1cccc2c1n(-c1ccc(-c3cncc4c3cnn4C)cc1)c(=O)n2CC(=O)NCC(F)(F)F [Example 80, 2-[4-(dimethylamino)-3-[4-(1-methylpyrazolo[3,4-c]pyridin-4-yl)phenyl]-2-oxo-benzimidazol-1-yl]-N-(2,2,2-trifluoroethyl)acetamide]				10 to 100 nM

More lines, now with the values ahead:

IC50 [1]	DDR1 pIC50 [2]	DDR2 pIC50 [1]	IC50 [2]	SMILES
100 to 1000 nM	A (pIC50>8)			Cc1cc(-c2cncc3c2cnn3C)ccc1-n1c(=O)n(CC(=O)NCC(F)(F)F)c2cccc(C)c21 [Example 16, 2-[4-methyl-3-[2-methyl-4-(1-methylpyrazolo[3,4-c]pyridin-4-yl)phenyl]-2-oxo-benzimidazol-1-yl]-N-(2,2,2-trifluoroethyl)acetamide]
		D (pIC50≤6)	10 to 100 nM	Cc1cc(-c2cncc3c2cnn3C)cnc1-n1c(=O)n(CC(=O)NCC(F)(F)F)c2cccc(C)c21 [Example 110]
100 to 1000 nM	A (pIC50>8)			Cc1cccc2c1n(-c1ncc(-c3cncc4[nH]ncc34)cn1)c(=O)n2CC(=O)N[C@@H](C)C(F)(F)F [Example 73, 2-[4-methyl-2-oxo-3-[5-(1H-pyrazolo[3,4-c]pyridin-4-yl)pyrimidin-2-yl]benzimidazol-1-yl]-N-[(1S)-2,2,2-trifluoro-1-methyl-ethyl]acetamide]
100 to 1000 nM	A (pIC50>8)			Cc1cccc2c1n(-c1ccc(-c3cncc4[nH]ncc34)cn1)c(=O)n2CC(=O)N1CCO[C@@H](C(F)(F)F)C1 [Example 71, 4-methyl-1-[2-oxo-2-[(2R)-2-(trifluoromethyl)morpholin-4-yl]ethyl]-3-[5-(1H-pyrazolo[3,4-c]pyridin-4-yl)-2-pyridyl]benzimidazol-2-one]
			10 to 100 nM	Cc1cccc2c1n(-c1ccc(-c3cncc4c3cnn4C)cc1)c(=O)n2CC(=O)N1CCC[C@H]1CF [Example 26, 4-methyl-3-[4-(1-methylpyrazolo[3,4-c]pyridin-4-yl)phenyl]-1-[2-oxo-2-[(2S)-2-(fluoromethyl)pyrrolidin-1-yl]ethyl]benzimidazol-2-one]
	B (8≥pIC50>7)	D (pIC50≤6)		Cc1cccc2c1n(-c1ccc(-c3cncc4c3cnn4C)cn1)c(=O)n2CC(=O)N[C@@H](C)C(F)(F)F [Example 64, 2-[4-methyl-3-[5-(1-methylpyrazolo[3,4-c]pyridin-4-yl)-2-pyridyl]-2-oxo-benzimidazol-1-yl]-N-[(1S)-2,2,2-trifluoro-1-methyl-ethyl]acetamide]
100 to 1000 nM	A (pIC50>8)			Cc1cccc2c1n(-c1ccc(-c3cncc4[nH]ncc34)cn1)c(=O)n2CC(=O)N1CCO[C@H](C(F)(F)F)C1 [Example 70, 4-methyl-1-[2-oxo-2-[(2S)-2-(trifluoromethyl)morpholin-4-yl]ethyl]-3-[5-(1H-pyrazolo[3,4-c]pyridin-4-yl)-2-pyridyl]benzimidazol-2-one]
		D (pIC50≤6)	100 to 1000 nM	Cn1ncc2c(-c3ccc(-n4c(=O)n(CC(=O)NCC(F)(F)F)c5ccccc54)nc3)cncc21 [Example 63, 2-[3-[5-(1-methylpyrazolo[3,4-c]pyridin-4-yl)-2-pyridyl]-2-oxo-benzimidazol-1-yl]-N-(2,2,2-trifluoroethyl) acetamide]
10 to 100 nM	A (pIC50>8)			Cc1cccc2c1n(-c1ccc(-c3cncc4c3cnn4C)cc1)c(=O)n2CC(=O)N1CCOCC1C(F)(F)F (stereo not drawn) [Example 39, 4-methyl-3-[4-(1-methylpyrazolo[3,4-c]pyridin-4-yl)phenyl]-1-[2-oxo-2-[3-(trifluoromethyl)morpholin-4-yl]ethyl]benzimidazol-2-one]
		D (pIC50≤6)	100 to 1000 nM	Cn1ncc2c(-c3ccc(-n4c(=O)n(CC(=O)N5CC(C(F)(F)F)C5)c5ccccc54)cc3)cncc21 [Example 34, 1-[4-(1-methylpyrazolo[3,4-c]pyridin-4-yl)phenyl]-3-[2-oxo-2-[3-(trifluoromethyl)azetidin-1-yl]ethyl]benzimidazol-2-one]
		D (pIC50≤6)	10 to 100 nM	Cn1ncc2c(-c3ccc(-n4c(=O)n(CC(=O)N5CCO[C@H](C(F)(F)F)C5)c5ccccc54)cc3)cncc21 [Example 38, 1-[4-(1-methylpyrazolo[3,4-c]pyridin-4-yl)phenyl]-3-[2-oxo-2-[(2S)-2-(trifluoromethyl)morpholin-4-yl]ethyl]benzimidazol-2-one]
10 to 100 nM			< 10 nM	Cc1cccc2c1n(-c1ccc(-c3cncc4[nH]ncc34)cc1)c(=O)n2CC(=O)NCC(F)(F)F [Example 44, 2-[4-methyl-2-oxo-3-[4-(1H-pyrazolo[3,4-c]pyridin-4-yl)phenyl]benzimidazol-1-yl]-N-(2,2,2-trifluoroethyl)acetamide]
100 to 1000 nM				Cc1cccc2c1n(-c1ccc(-c3cncc4c3cnn4C)cn1)c(=O)n2CC(=O)N1CCO[C@H](C(F)(F)F)C1 [Example 61, 4-methyl-3-[5-(1-methylpyrazolo[3,4-c]pyridin-4-yl)-2-pyridyl]-1-[2-oxo-2-[(2S)-2-(trifluoromethyl)morpholin-4-yl]ethyl]benzimidazol-2-one]
